Assay results as given in patent US7510704B2, “Cosmetic compositions” (Unilever Home & Personal Care USA division of Conopco, Inc., priority 2001, dated 2009).

System: Corynebacterium A sp. NCIMB 40928
Assay: In vitro model of fatty acid catabolism by axillary bacteria (culture viability and remaining fatty acid after 24 h)
Assay type: cell-based
Conditions: for Viability / Fatty acid utilisation: 24 h; for Viability: 35° C.; for Fatty acid utilisation: pentadecanoic acid 2.0 mg/ml
Experimental: This experiment uses the methods of WO 00/01353 to illustrate the much greater efficacy of 4-hydroxy-3-methoxybenzyl alcohol at inhibiting fatty acid catabolism by corynebacteria A, when compared with analogous materials previously disclosed in the aforementioned publication. Data illustrating the sub-lethal aspect of the inhibition are also presented.
An in vitro model system, reproducing fatty acid catabolism by axillary bacteria, was used. To each of several 250 ml baffled shake flasks was added 30 ml semi-synthetic medium (see below), supplemented with fatty acid substrate (2.0 mg/ml pentadecanoic acid) and non-fatty acid substrate (0.5 mg/ml glucose). To each flask (other than the control) was also added one of the indicated test materials, as a 10% (w/v) emulsion in semi-synthetic medium, supplemented with Gum Arabic (5.0 mg/ml). (Emulsions were formed by ultra-homogenisation at 24,000 rpm for about 1 min.) Each of the flasks was inoculated with fresh bacterial biomass (Corynebacterium A sp. NCIMB 40928), pre-grown for 24 h in TSBT (see below), to give starting optical densities (A590) of 1.0-2.0. Following inoculation, the flasks were incubated aerobically at 35° C., with agitation (130 rpm), for 24 hours. After this time, culture viability and remaining fatty acid were determined by methodology as described in […].
Composition of semi-synthetic medium in g/l: KH2PO4 (1.6), (NH4)2HPO4 (5.0), Na2SO4 (0.38), yeast nitrogen base (3.35) (Difco), yeast extract (0.5) (Beta Lab), Tween 80™ (0.2), Triton X-100™ (0.2), and MgCl2.6H2O (0.5).
Composition of TSBT (Tween-supplemented Tryptone soya broth) in g/l: Tryptone soya broth (30.0) (Merck), yeast extract (10.0) (Beta Lab), and Tween 80™ (1.0).
NCIMB 40928 in terms of culture viability and fatty acid utilisation. Various concentrations of active were investigated. It will be noted that for each of the Examples, culture viability was not substantially affected.

Compound: OCc1ccc(O)cc1 [A, 4-hydroxybenzyl alcohol]
- Viability (active conc. 0.1 g/l): 8.69 log10CFU/ml
- Fatty acid utilisation (active conc. 0.1 g/l): 100%
- Viability (active conc. 0.25 g/l): 8.85 log10CFU/ml
- Fatty acid utilisation (active conc. 0.25 g/l): 97%
- Viability (active conc. 0.5 g/l): 8.17 log10CFU/ml
- Fatty acid utilisation (active conc. 0.5 g/l): 21%

Compound: COc1ccc(CO)cc1O [B, 3-hydroxy-4-methoxybenzyl alcohol]
- Viability (active conc. 1.0 g/l): 8.90 log10CFU/ml
- Fatty acid utilisation (active conc. 1.0 g/l): 99%
- Viability (active conc. 5.0 g/l): 8.99 log10CFU/ml
- Fatty acid utilisation (active conc. 5.0 g/l): 86%
- Viability (active conc. 10.0 g/l): 8.62 log10CFU/ml
- Fatty acid utilisation (active conc. 10.0 g/l): 29%

Compound: COc1cc(CCO)ccc1O [C, 4-hydroxy-3-methoxyphenethyl alcohol]
- Viability (active conc. 1.0 g/l): 8.80 log10CFU/ml
- Fatty acid utilisation (active conc. 1.0 g/l): 99%
- Viability (active conc. 5.0 g/l): 8.60 log10CFU/ml
- Fatty acid utilisation (active conc. 5.0 g/l): 59%
- Viability (active conc. 10.0 g/l): 8.09 log10CFU/ml
- Fatty acid utilisation (active conc. 10.0 g/l): 26%

Compound: COc1cc(CO)ccc1O [Example 1, 4-hydroxy-3-methoxybenzyl alcohol]
- Viability (active conc. 0.1 g/l): 8.91 log10CFU/ml
- Fatty acid utilisation (active conc. 0.1 g/l): 65%
- Viability (active conc. 0.25 g/l): 8.88 log10CFU/ml
- Fatty acid utilisation (active conc. 0.25 g/l): 40%
- Viability (active conc. 0.5 g/l): 8.28 log10CFU/ml
- Fatty acid utilisation (active conc. 0.5 g/l): 20%
- Reduction of the fatty acid catabolism of corynebacteria A (at a concentration of 0.5 mg/ml or less): greater than 50%
- Concentration producing sub-lethal inhibition (greater than 50% inhibition of pentadecanoic acid utilisation without reduction in cell viability, ≦1 log10 CFU/ml) (corynebacteria A): ≤ 0.25 mg/ml
